Assay results from patent US20230096766A1, “AMINO ACID HAVING FUNCTIONAL GROUP CAPABLE OF INTERMOLECULAR HYDROGEN BONDING, PEPTIDE COMPOUND CONTAINING SAME AND METHOD FOR PRODUCTION THEREOF” (Chugai Seiyaku Kabushiki Kaisha, priority 2018, published 2023).
*1 amine or outer side, *2 acyl side, *3 side chain or, on linkers, in order; H or OH if unused. Where a SMILES comes first, the peptide text is derived from it. Bridges are numbered along the chain shown (N, C = ends). [ ]: non-standard residue; d: D form. The star is where a group is joined. ξ: configuration not given here. dhPhe(4-CONHMe,3-OMe) = CNC(=O)c1ccc(CC[C@@H](N)C(=O)O)cc1OC; NMePhe(3-Cl) = CN[C@@H](Cc1cccc(Cl)c1)C(=O)O; X12 = O=C([C@H](CCCC(O)C(F)(F)F)N[*:1])[*:2]; ξGln(SO2Me) = CS(=O)(=O)NC(=O)CCC(N)C(=O)O; NMehPhe = CN[C@@H](CCc1ccccc1)C(=O)O; Ethyl(2-morpholino) = C1CN(CC*)CCO1; Propyl(2,2-Me2,3-OH) = CC(C)(CO)C*; NMeF = CN[C@@H](Cc1ccccc1)C(=O)O; NMeGABA = CN(CCCC(=O)[*:2])[*:1]; NMeI = CC[C@H](C)[C@H](NC)C(=O)O; Butyl(3-Me,3-OH) = CC(C)(O)CC*; CH2CH(OH)CF3 = OC(C*)C(F)(F)F; CH2CONHtBu = CC(C)(C)NC(=O)C*; NMeL = CN[C@@H](CC(C)C)C(=O)O; Propyl(2R-OH) = C[C@@H](O)C*; NMeV = CN[C@H](C(=O)O)C(C)C; NMeAbu = CC[C@H](NC)C(=O)O; NMeA = CN[C@@H](C)C(=O)O; Piperidide = C1CCN(*)CC1; CH2CMe2OH = CC(C)(O)C*; Me2NCH2CH2 = CN(C)CC*; NBuGly = CCCCNCC(=O)O; Isopentyl = CC(C)CC*; NPrGly = CCCNCC(=O)O; Ethyl(2-OH) = OCC*; ξS = NC(CO)C(=O)O; X3 = C[C@H](O)C*; Sar = CNCC(=O)O; tBu = CC(C)(C)*

Assay: in vitro
Settings: human, Caco-2, Caco-2

Row | Structure (SMILES) | Papp [×10⁻⁶ cm/s]
1 | CCCCN1CC(=O)N(C)[C@@H](Cc2ccccc2)C(=O)NC(CCC(=O)NS(C)(=O)=O)C(=O)N(C)[C@@H](CC(C)C)C(=O)N[C@@H]([C@@H](C)O)C(=O)N(CCCC)CC(=O)N(C)[C@@H](Cc2ccccc2)C(=O)N(C)[C@@H](CC(C)C)C(=O)N[C@@H](CC(C)C)C(=O)N(C)[C@@H](CC(C)C)C(=O)N[C@H](C(=O)N2CCCCC2)CC1=O (stereo partly drawn) [pd65] ([NBuGly][NMeF][ξGln(SO2Me)][NMeL]T[NBuGly][NMeF][NMeL]L[NMeL]D-Piperidide; lactam N-11) | 0.06
2 | CCCCN1CC(=O)N(C)[C@@H](Cc2ccccc2)C(=O)N[C@@H](COCCN(C)C)C(=O)N(C)[C@@H](CC(C)C)C(=O)N[C@@H]([C@@H](C)O)C(=O)N(C)CC(=O)N(C)[C@@H](Cc2ccccc2)C(=O)N(C)[C@@H](CC)C(=O)N[C@@H](COCCC(C)C)C(=O)N(C)[C@@H](CC(C)C)C(=O)N[C@H](C(=O)N2CCCCC2)CC1=O [pd58] ([NBuGly][NMeF]S(Me2NCH2CH2)[NMeL]T[Sar][NMeF][NMeAbu]S(Isopentyl)[NMeL]D-Piperidide; lactam N-11) | 0.021
3 | CCCCN1CC(=O)N(C)[C@@H](Cc2ccccc2)C(=O)N(C)[C@@H](CC(C)C)C(=O)N[C@@H](C(C)C)C(=O)N(C)[C@@H](CC(C)C)C(=O)N[C@H](C(=O)N2CCCCC2)CC(=O)N(C)CC(=O)N(C)[C@@H](CC(C)C)C(=O)NC(COCCN2CCOCC2)C(=O)N(C)[C@@H](CC(C)C)C(=O)N[C@@H]([C@@H](C)O)C1=O (stereo partly drawn) [pd484] ([Sar][NMeL][ξS](Ethyl(2-morpholino))[NMeL]T[NBuGly][NMeF][NMeL]V[NMeL]D-Piperidide; lactam N-11) | 1.8

Same assay, conditions: human, Caco-2, Caco-2 (cm/sec)

Row | Structure (SMILES) | Papp [×10⁻⁶ cm/s]
4 | CCCN1CC(=O)N(C)[C@@H](CC(C)C)C(=O)N[C@@H](COCCC(C)C)C(=O)N(C)[C@@H](Cc2ccccc2)C(=O)N(C)[C@@H](CC(C)C)C(=O)N[C@H](C(=O)N2CCCCC2)CC(=O)N[C@H](C(C)C)C(=O)N(C)[C@@H](Cc2ccccc2)C(=O)N[C@@H](COC[C@H](C)O)C(=O)N(C)[C@@H](CC(C)C)C(=O)N[C@@H]([C@@H](C)O)C1=O [AP61] ([dV][NMeF]S(X3)[NMeL]T[NPrGly][NMeL]S(Isopentyl)[NMeF][NMeL]D-Piperidide; lactam N-11) | 0.51
5 | CC[C@H](C)[C@@H]1NC(=O)[C@H](CC(C)C)N(C)C(=O)CCCN(C)C(=O)C[C@@H](C(=O)N2CCCCC2)NC(=O)[C@H](CC(C)C)N(C)C(=O)[C@H](CC(C)C)N(C)C(=O)[C@H]([C@@H](C)O)NC(=O)[C@H](CC(C)C)N(C)C(=O)[C@@H](CCc2ccc(C(=O)NC)c(OC)c2)NC(=O)[C@H](CC(C)C)N(C)C(=O)[C@H](Cc2ccccc2)N(C)C1=O [AP210] ([NMeGABA][NMeL]I[NMeF][NMeL][dhPhe(4-CONHMe,3-OMe)][NMeL]T[NMeL][NMeL]D-Piperidide; lactam N-11) | 0.34
6 | CC(C)C[C@@H]1NC(=O)[C@H](C(C)C)N(C)C(=O)C[C@@H](C(=O)N2CCCCC2)NC(=O)[C@H](CC(C)C)N(C)C(=O)CN(C)C(=O)[C@H]([C@@H](C)O)NC(=O)[C@H](CC(C)C)N(C)C(=O)[C@H](CCc2ccccc2)N(C)C(=O)[C@H](COCCO)NC(=O)[C@H](Cc2ccccc2)N(C)C(=O)[C@H](CC(C)C)N(C)C1=O [Compound A06] ([NMeV]L[NMeL][NMeF]S(Ethyl(2-OH))[NMehPhe][NMeL]T[Sar][NMeL]D-Piperidide; lactam N-11) | 0.53
7 | CC[C@H](C)[C@H]1C(=O)N[C@@H](Cc2ccc(O)cc2)C(=O)N(C)CC(=O)N(C)[C@@H](CC(C)C)C(=O)N[C@H](C(=O)N2CCCCC2)CC(=O)N(C)[C@@H](C)C(=O)N[C@@H](C(C)C)C(=O)N(C)[C@@H](CC(C)C)C(=O)N(C)[C@@H](CC(C)C)C(=O)N[C@@H](C)C(=O)N(C)[C@@H](Cc2ccccc2)C(=O)N1C [pd126] ([NMeA]V[NMeL][NMeL]A[NMeF][NMeI]Y[Sar][NMeL]D-Piperidide; lactam N-11) | 0.42
8 | CC(C)C[C@@H]1NC(=O)[C@H](CCc2ccccc2)N(C)C(=O)[C@@H](C(C)C)NC(=O)C[C@@H](C(=O)N2CCCCC2)NC(=O)[C@H](CC(C)C)N(C)C(=O)[C@H](Cc2cccc(Cl)c2)N(C)C(=O)[C@H](COCCO)NC(=O)[C@H](CC(C)C)N(C)C(=O)CN(C)C(=O)[C@H]([C@@H](C)O)NC(=O)[C@H](CC(C)C)N(C)C1=O [Compound A02] ([dV][NMehPhe]L[NMeL]T[Sar][NMeL]S(Ethyl(2-OH))[NMePhe(3-Cl)][NMeL]D-Piperidide; lactam N-11) | 0.45
9 | CC(C)CCOC[C@@H]1NC(=O)[C@H](Cc2ccccc2)N(C)C(=O)[C@H](Cc2ccccc2)N(C)C(=O)[C@H](COCC(C)(C)O)NC(=O)[C@H](CC(C)C)N(C)C(=O)CCCN(C)C(=O)C[C@@H](C(=O)N2CCCCC2)NC(=O)[C@H](CC(C)C)N(C)C(=O)[C@H](CC(C)C)N(C)C(=O)[C@H]([C@@H](C)O)NC(=O)[C@H](CC(C)C)N(C)C1=O [AP03] ([NMeGABA][NMeL]S(CH2CMe2OH)[NMeF][NMeF]S(Isopentyl)[NMeL]T[NMeL][NMeL]D-Piperidide; lactam N-11) | 0.46
10 | CC[C@H]1C(=O)N[C@@H](CC(C)C)C(=O)N(C)[C@@H](CC(C)C)C(=O)N(C)[C@@H](Cc2ccccc2)C(=O)NC(COCC(C)(C)CO)C(=O)N(C)[C@@H](Cc2ccccc2)C(=O)N(C)[C@@H](CC(C)C)C(=O)N[C@@H]([C@@H](C)O)C(=O)N(C)CC(=O)N(C)[C@@H](CC(C)C)C(=O)N[C@H](C(=O)N2CCCCC2)CC(=O)N1C (stereo partly drawn) [AP122] ([NMeAbu]L[NMeL][NMeF][ξS](Propyl(2,2-Me2,3-OH))[NMeF][NMeL]T[Sar][NMeL]D-Piperidide; lactam N-11) | 2.9
11 | CCCN1CC(=O)N(C)[C@@H](CC(C)C)C(=O)N[C@@H](COCC(C)(C)O)C(=O)N(C)[C@@H](Cc2ccccc2)C(=O)N(C)[C@@H](CC(C)C)C(=O)N[C@H](C(=O)N2CCCCC2)CC(=O)N[C@H](C(C)C)C(=O)N(C)[C@@H](Cc2ccccc2)C(=O)N[C@@H](CC(C)C)C(=O)N(C)[C@@H](CC(C)C)C(=O)N[C@@H]([C@@H](C)O)C1=O [AP10] ([dV][NMeF]L[NMeL]T[NPrGly][NMeL]S(CH2CMe2OH)[NMeF][NMeL]D-Piperidide; lactam N-11) | 1.5
12 | CCCCN1CC(=O)N(C)[C@@H](CC(C)C)C(=O)N[C@@H](COC(C)(C)C)C(=O)N(C)[C@@H](CC(C)C)C(=O)N(C)[C@@H](CC)C(=O)N[C@H](C(=O)N2CCCCC2)CC(=O)N[C@H](CC(C)C)C(=O)N(C)[C@@H](Cc2ccccc2)C(=O)N[C@@H](Cc2ccc(O)cc2)C(=O)N(C)[C@@H](CC(C)C)C(=O)N[C@@H]([C@@H](C)O)C1=O [Compound F02] ([dL][NMeF]Y[NMeL]T[NBuGly][NMeL]S(tBu)[NMeL][NMeAbu]D-Piperidide; lactam N-11) | 0.04
13 | CC[C@H](C)[C@@H]1NC(=O)[C@H](CC(C)C)N(C)C(=O)CCCN(C)C(=O)C[C@@H](C(=O)N2CCCCC2)NC(=O)[C@H](CC(C)C)N(C)C(=O)[C@H](CC(C)C)N(C)C(=O)[C@H]([C@@H](C)O)NC(=O)[C@H](CC(C)C)N(C)C(=O)[C@H](COCCO)NC(=O)[C@H](CCc2ccccc2)N(C)C(=O)[C@H](CCc2ccccc2)N(C)C1=O [Compound A04] ([NMeGABA][NMeL]I[NMehPhe][NMehPhe]S(Ethyl(2-OH))[NMeL]T[NMeL][NMeL]D-Piperidide; lactam N-11) | 0.41
14 | CCCN1CC(=O)N(C)[C@@H](CC(C)C)C(=O)N[C@@H](COCC(=O)NC(C)(C)C)C(=O)N(C)[C@@H](CC(C)C)C(=O)N(C)[C@@H](C)C(=O)N[C@H](C(=O)N2CCCCC2)CC(=O)N[C@H](CC(C)C)C(=O)N(C)[C@@H](CC(C)C)C(=O)N[C@@H](Cc2ccccc2)C(=O)N(C)[C@@H](CCc2ccccc2)C(=O)N[C@@H]([C@@H](C)O)C1=O [AP13] ([dL][NMeL]F[NMehPhe]T[NPrGly][NMeL]S(CH2CONHtBu)[NMeL][NMeA]D-Piperidide; lactam N-11) | 0.32
15 | CC[C@H](C)[C@@H]1NC(=O)[C@H](CC(C)C)N(C)C(=O)CCCN(C)C(=O)C[C@@H](C(=O)N2CCCCC2)NC(=O)[C@H](CC(C)C)N(C)C(=O)[C@H](CC(C)C)N(C)C(=O)[C@H]([C@@H](C)O)NC(=O)[C@H](CC(C)C)N(C)C(=O)[C@H](COC[C@@H](C)O)NC(=O)[C@H](Cc2cccc(Cl)c2)N(C)C(=O)[C@H](Cc2ccccc2)N(C)C1=O [AP74] ([NMeGABA][NMeL]I[NMeF][NMePhe(3-Cl)]S(Propyl(2R-OH))[NMeL]T[NMeL][NMeL]D-Piperidide; lactam N-11) | 0.31
16 | CC(C)C[C@@H]1NC(=O)[C@H](Cc2ccccc2)N(C)C(=O)[C@@H](C(C)C)NC(=O)C[C@@H](C(=O)N2CCCCC2)NC(=O)[C@H](CC(C)C)N(C)C(=O)[C@H](Cc2cccc(Cl)c2)N(C)C(=O)[C@H](COCCC(C)(C)O)NC(=O)[C@H](CC(C)C)N(C)C(=O)CN(C)C(=O)[C@H]([C@@H](C)O)NC(=O)[C@H](C(C)C)N(C)C1=O [AP52] ([dV][NMeF]L[NMeV]T[Sar][NMeL]S(Butyl(3-Me,3-OH))[NMePhe(3-Cl)][NMeL]D-Piperidide; lactam N-11) | 1.7

Same assay, conditions: human, Caco-2, Caco-2 (membrane permeability)

Row | Structure (SMILES) | Papp [×10⁻⁶ cm/s]
17 | CC[C@H](C)[C@@H]1NC(=O)[C@H](CC(C)C)N(C)C(=O)CCCN(C)C(=O)C[C@@H](C(=O)N2CCCCC2)NC(=O)[C@H](CC(C)C)N(C)C(=O)[C@H](CC(C)C)N(C)C(=O)[C@H]([C@@H](C)O)NC(=O)[C@H](CC(C)C)N(C)C(=O)[C@H](COCC(O)C(F)(F)F)NC(=O)[C@H](Cc2ccccc2)N(C)C(=O)[C@H](Cc2ccccc2)N(C)C1=O (stereo partly drawn) [Compound C03] ([NMeGABA][NMeL]I[NMeF][NMeF]S(CH2CH(OH)CF3)[NMeL]T[NMeL][NMeL]D-Piperidide; lactam N-11) | 0.5
18 | CCCCN1CC(=O)N(C)[C@@H](Cc2ccccc2)C(=O)N(C)[C@@H](CC(C)C)C(=O)N[C@@H](CCCC(O)C(F)(F)F)C(=O)N(C)[C@@H](CC(C)C)C(=O)N[C@H](C(=O)N2CCCCC2)CC(=O)N(C)CC(=O)N(C)[C@@H](Cc2ccccc2)C(=O)N[C@@H]([C@@H](C)CC)C(=O)N(C)[C@@H](CC(C)C)C(=O)N[C@@H]([C@@H](C)O)C1=O (stereo partly drawn) [Compound D07] ([Sar][NMeF]I[NMeL]T[NBuGly][NMeF][NMeL][X12][NMeL]D-Piperidide; lactam N-11) | 0.37
